Results from publication PMC3441526, “KCN1, a Novel Synthetic Sulfonamide Anticancer Agent: In Vitro and In Vivo Anti-Pancreatic Cancer Activities and Preclinical Pharmacology” (PLoS ONE, 2012).

Assays:
Format in all cases: cell-based, human
Mia Paca-2 cells = assay: Annexin V apoptosis assay; settings: Mia Paca-2, 50 µM, 48 h
Method: (§1) Cells in early and late stages of apoptosis were detected using an Annexin V-FITC apoptosis detection kit from BioVision (Mountain View, CA), according the manufacturer’s protocol, [47]. In brief, 2–3×10^5 cells were exposed to various doses of the test compound KCN1 (0, 5, 12.5, 50 µM) and incubated for 48 h prior to analysis. The samples were analyzed using a Becton Dickinson FACSCalibur instrument (Ex = 488 nm; Em = 530 nm). Cells that were positive for Annexin V-FITC alone (early apoptosis) and Annexin V-FITC and PI (late apoptosis) were counted.

BxPC3 cells = assay: Annexin V apoptosis assay; settings: BxPC3, 50 µM, 48 h
Method: as §1

Panc-1 cells [1] = assay: Annexin V apoptosis assay; settings: Panc-1, 50 µM, 48 h
Method: as §1

HPAC cells [2] = assay: Annexin V apoptosis assay; settings: 50 µM, 48 h, against untreated control
Method: as §1

Panc-1 cells [3] = assay: Anchorage-independent growth assay (soft agar); settings: Panc-1, soft agar, 14 days
Method: (§2) Pancreatic cancer cells were treated with various concentrations of KCN1 in 0.8 ml of 0.35% agar containing 10% FBS. The cultures were maintained in 37°C, 5% CO2 incubator for two weeks. Then, cell colonies were observed and scored under a microscope.

HPAC cells [4] = assay: Anchorage-independent growth assay (soft agar); settings: 14 days
Method: as §2

[5] = test system: HPAC, Panc-1, Mia Paca-2 and BxPC3 pancreatic cancer cells; assay: Western blot of cell cycle-related proteins; settings: all four cell lines, 12 h and 24 h
Method: In the in vitro studies, cells were exposed to various concentrations of KCN1 for 12 or 24 h. For immunoblotting, cell lysates were fractionated with identical amounts of protein by SDS-PAGE and transferred to Bio-Rad trans-Blot nitrocellulose membranes (Bio-Rad Laboratories, Hercules, CA). The nitrocellulose membrane was then incubated in blocking buffer (Tris-buffered saline containing 0.1% Tween 20 and 5% non-fat milk) for 1 hr at room temperature. Then the membrane was incubated with the appropriate primary antibody overnight at 4°C or 2 h at room temperature with gentle shaking. The membrane was washed three times with rinsing buffer (Tris-buffered saline containing 0.1% Tween 20) for 15 min and then incubated with goat anti-mouse/rabbit IgG-horseradish peroxidase-conjugated antibody (Bio-Rad) for 1 h at room temperature. After repeating the washes in triplicate, the protein of interest was detected by enhanced chemilluminescence reagents from PerkinElmer LAS, Inc (Boston, MA).

For `COc1ccc(S(=O)(=O)N(Cc2ccc3c(c2)C=CC(C)(C)O3)c2ccccc2)cc1OC` [KCN1, 3,4-dimethoxy-N-[(2,2-dimethyl-2H-chromen-6-yl)methyl]-N-phenylbenzenesulfonamide], the apoptotic activity (Mia Paca-2 cells) was “no detectable apoptotic activity”, the apoptotic activity (BxPC3 cells) was “no detectable apoptotic activity” and the apoptotic activity (Panc-1 cells [1]) was “no detectable apoptotic activity”. For the same compound, the apoptotic index (HPAC cells [2]) was 1.4 fold, the “decrease in number of colonies formed” value (Panc-1 cells [3]) was 3 fold and the “decrease in number of colonies formed” value (HPAC cells [4]) was 4 fold. The “expression of E2F1, Cdk2, Cdk4, Cdk6, Cdc25c, Cyclin D1 and Cyclin E” value [5] was “decreased expression” and the “expression of p21 and p27” value [5] was “increased the expression”.
